PMC12529164, “Design, Synthesis, Structure–Activity Relationships, and Preliminary Anticancer Properties of Menthol-Modified Coumarin Esters and 3,4-Dihydrocoumarin Derivatives” (ACS Omega, 2025)
Like-named read-outs stand apart in the source and are kept apart here.

How the values were obtained:
[1] = system: HaCaT; assay: MTT cytotoxicity assay, normal cells; assay type: cell-based; settings: 72 h, human immortal keratinocytes (normal cells)
Description: (§1) The human primary (SW480) and metastatic (SW620) colon cancer, metastatic prostate cancer (PC3), breast adenocarcinoma (MDA-MB-231) and human immortal keratinocyte (HaCaT) cell lines were recruited from the American Type Culture Collection (ATCC). The cells were cultured in the recommended medium according to protocols (RPMI 1640 for PC3, MEM for SW480 and SW620, as well as DMEM for MDA-MB-231 and HaCaT cells) with addition of 10% FBS, penicillin (100 U/mL), and streptomycin (100 μg/mL) and cultured in 37 °C/5% CO2 in a humidified incubator. Then, the cells were passaged at a confluence of 80–90% by a treatment with 0.25% trypsin (Gibco Life Technologies) and used for studies.
(§2) They were added to 96-well plates with seeded normal and cancer cells (1 × 10^4 cells per well) and incubated for 72 h. MTT analysis was performed according to a previous study.

[2] = system: tested cancer cell lines (SW480, SW620, PC3, MDA-MB-231); assay: MTT assay, mean over tested cancer cell lines; assay type: cell-based; settings: Homo sapiens, mean of the four cancer cell lines
Description: They were added to 96-well plates with seeded normal and cancer cells (1 × 10^4 cells per well) and incubated for 72 h. MTT analysis was performed according to a previous study. […]

[3] = system: SW620; assay: MTT cytotoxicity assay; assay type: cell-based, human; settings: for SI SW620: SI = IC50 for normal cell line (HaCaT)/IC50 cancer cell line; for IC50: MTT, 72 h, human metastatic colon cancer
Description: as §1, §2

[4] = system: MDA-MB-231; assay: MTT cytotoxicity assay; assay type: cell-based, human; settings: for IC50: MTT, 72 h, human breast adenocarcinoma; for SI MDA-MB-231: SI = IC50 for normal cell line (HaCaT)/IC50 cancer cell line
Description: as §1, §2

[5] = system: PC3; assay: MTT cytotoxicity assay; assay type: cell-based, human; settings: for IC50: MTT, 72 h, human metastatic prostate cancer; for SI PC3: SI = IC50 for normal cell line (HaCaT)/IC50 cancer cell line
Description: as §1, §2

[6] = system: SW480; assay: MTT cytotoxicity assay; assay type: cell-based, human; settings: for SI SW480: SI = IC50 for normal cell line (HaCaT)/IC50 cancer cell line; for IC50: MTT, 72 h, human primary colon cancer
Description: as §1, §2

[7] = system: Danio rerio larvae; assay: In vivo toxicity, maximum tolerated concentration; settings: zebrafish larvae, immersion from 96 hpf for 18 h (120 hpf), 5-150 μM tested
Description: Zebrafish (Danio rerio, strain AB) was maintained at the Experimental Medicine Center, Medical University of Lublin, Poland. Embryos and larvae up to 120 h postfertilization (hpf) were kept under generally accepted environmental conditions, i.e., in incubators at 28.5 °C, with 14/10 h light/dark cycles. The embryos of the Zebrafish were harvested after the natural reproduction process.
Three compounds showing low IC50 values determined on cancer lines in in vitro tests (2b, 4a) and compound 1a characterized by low cytotoxicity were used for in vivo tests. We also conducted research for coumarin. These compounds were dissolved in dimethyl sulfoxide (DMSO) (Sigma-Aldrich, St. Louis, MO, USA) and diluted in the zebrafish medium (pH 7.1–7.3; 5.0 mM NaCl, 0.17 mM KCl, 0.33 mM CaCl2, 0.33 mM MgSO4) to achieve a final DMSO concentration of 1% w/v. Twenty-four hpf zebrafish embryos were investigated under a light microscope, and […] fertilized embryos (n = 60) were selected and transferred into 48-well plates (5 embryos per well). Larvae were incubated in 1 mL of the zebrafish medium for up to 3 days after fertilization.
On the fourth day postfertilization (96 hpf), the larvae (10 individuals per group) were incubated in solutions of coumarin or its three derivatives (1a, 2b, 4a) at selected concentrations (5, 10, 25, 50, 75, 100, 150 μM), along with control solutions: negative control (zebrafish medium) and solvent control (1% DMSO in zebrafish medium). The maximum tolerated concentration (MTC) was calculated to assess the toxicity of the compounds and extracts. […] Larvae were individually inspected under a microscope for signs of acute locomotor dysfunction, including a weak reaction to light tail stimulation with a fine needle, disrupted posture, body deformities, protruding eyes, slowed or absent heartbeat, and mortality.

[8] = Table S7, >100 entered as 100, read-out: mean anticancer IC50
[9] = read-out: average IC50 against tested cancer cell lines

IC50 [2, 8] | IC50 [2, 9] | SMILES | IC50 ([1]; HaCaT) | SI SW620 [3] | IC50 ([3]; SW-620) | IC50 ([4]; MDA-MB-231) | SI MDA-MB-231 [4] | IC50 ([5]; PC-3) | SI PC3 [5] | SI SW480 [6] | IC50 ([6]; SW480) | IC50 [1] | IC50 [3] | IC50 [4] | IC50 [5] | IC50 [6] | maximum tolerated concentration (MTC) [7]
 |  | CCOP(=O)(OCC)c1cc2ccccc2oc1=O [Compound 2a, Diethyl (2-Oxo-2H-chromen-3-yl)phosphonate] |  | 1 |  |  | 1 |  | 1 | 1 |  | > 100 µM | > 100 µM | > 100 µM | > 100 µM | > 100 µM | 
> 100 µM |  | CC(C)[C@H]1CC[C@H](C)C[C@@H]1OC(=O)c1cc2ccccc2oc1=O [Compound 1b, (1S,2R,5S)-2-Isopropyl-5-methylcyclohexyl 2-oxo-2H-chromene-3-carboxylate] | 41.1 ± 2.8 µM | 0.41 | > 100 µM | > 100 µM | 0.41 | > 100 µM | 0.41 | 0.41 | > 100 µM |  |  |  |  |  | 
> 100 µM |  | COc1cccc2cc(P(=O)(c3ccccc3)c3ccccc3)c(=O)oc12 [Compound 3, 3-(Diphenylphosphinyl)-8-methoxy-2H-chromen-2-one] | > 100 µM | 1 | > 100 µM | > 100 µM | 1 | > 100 µM | 1 | 1 | > 100 µM |  |  |  |  |  | 
 |  | N.N.[Cl][Pt][Cl] [Cisplatin, reference compound] |  |  |  |  |  |  |  |  |  |  | 6.7 ± 1.1 µM | 7.3 ± 0.8 µM |  | 10.4 ± 0.9 µM | 
> 100 µM |  | COc1ccc2cc(C(=O)O[C@@H]3C[C@H](C)CC[C@H]3C(C)C)c(=O)oc2c1 [Compound 1c, (1R,2S,5R)-2-Isopropyl-5-methylcyclohexyl 7-methoxy-2-oxo-2H-chromene-3-carboxylate] | 15.3 ± 4.41 µM | 0.15 | > 100 µM | > 100 µM | 0.15 | > 100 µM | 0.15 | 0.15 | > 100 µM |  |  |  |  |  | 
> 100 µM |  | CCOC(=O)C1C(=O)Oc2ccccc2C1P(=O)(c1ccccc1)c1ccccc1 (stereo not drawn) [Compound 4c, Ethyl 4-(Diphenylphosphoryl)-2-oxochroman-3-carboxylate] | > 100 µM | 1 | > 100 µM | > 100 µM | 1 | > 100 µM | 1 | 1 | > 100 µM |  |  |  |  |  | 
> 100 µM |  | O=C(OC1CCCCC1)c1cc2ccccc2oc1=O [Compound 1f, Cyclohexyl 2-Oxo-2H-chromene-3-carboxylate] | > 100 µM | 1 | > 100 µM | > 100 µM | 1 | > 100 µM | 1 | 1 | > 100 µM |  |  |  |  |  | 
 |  | COc1cccc2c1C(=O)c1c(O)c3c(c(O)c1C2=O)C[C@@](O)(C(=O)CO)C[C@@H]3O[C@H]1C[C@H](N)[C@H](O)[C@H](C)O1 [Doxorubicin, reference compound] | 0.3 ± 0.1 µM | 1.0 | 0.3 ± 0.1 µM | 1.6 ± 0.2 µM |  | 0.3 ± 0.1 µM | 1.0 | 0.4 | 0.7 ± 0.1 µM |  |  |  |  |  | 
> 47.8 µM | > 47.8 µM | COc1cccc2cc(C(=O)O[C@@H]3C[C@H](C)CC[C@H]3C(C)C)c(=O)oc12 [Compound 1d, (1R,2S,5R)-2-Isopropyl-5-methylcyclohexyl 8-Methoxy-2-oxo-2H-chromene-3-carboxylate] | > 100 µM | 1 | > 100 µM | 36.6 ± 7.74 µM | 2.73 | 29.3 ± 2.05 µM | 3.41 | 3.93 | 25.4 ± 6.12 µM |  |  |  |  |  | 
 |  | O=c1ccc2ccccc2o1 [coumarin, 2H-chromen-2-one] |  |  |  |  |  |  |  |  |  |  |  |  |  |  | 100 µM
43.7 µM | 43.7 µM | CC(C)[C@@H]1CC[C@@H](C)C[C@H]1OC(=O)c1cc2ccc(O)cc2oc1=O [Compound 1e, (1R,2S,5R)-2-Isopropyl-5-methylcyclohexyl 7-hydroxy-2-oxo-2H-chromene-3-carboxylate] | 78.8 ± 7.12 µM | 2.03 | 38.7 ± 0.01 µM | 86.7 ± 2.24 µM | 0.91 | 21.8 ± 4.21 µM | 3.61 | 2.84 | 27.7 ± 2.42 µM |  |  |  |  |  | 

SMILES | IC50 [2, 8] | IC50 [2, 9] | IC50 ([1]; HaCaT) | SI SW620 [3] | IC50 ([3]; SW-620) | IC50 ([4]; MDA-MB-231) | SI MDA-MB-231 [4] | IC50 ([5]; PC-3) | SI PC3 [5] | SI SW480 [6] | IC50 ([6]; SW480) | IC50 [1] | IC50 [3] | IC50 [4] | IC50 [5] | IC50 [6] | maximum tolerated concentration (MTC) [7]
CCOP(=O)(OCC)C1C(=O)Oc2ccccc2C1P(=O)(c1ccccc1)c1ccccc1 (stereo not drawn) [Compound 5a, Diethyl (4-(Diphenylphosphoryl)-2-oxochroman-3-yl)phosphonate] | > 100 µM |  | > 100 µM | 1 | > 100 µM | > 100 µM | 1 | > 100 µM | 1 | 1 | > 100 µM |  |  |  |  |  | 
CCOC(=O)C1C(=O)Oc2ccccc2C1P(=O)(OCC)OCC (stereo not drawn) [Compound 4d, Ethyl 4-(diethoxyphosphoryl)-2-oxochroman-3-carboxylate] | > 100 µM |  | > 100 µM | 1 | > 100 µM | > 100 µM | 1 | > 100 µM | 1 | 1 | > 100 µM |  |  |  |  |  | 
CC(C)[C@@H]1CC[C@@H](C)C[C@H]1OC(=O)c1cc2ccccc2oc1=O [Compound 1a, (1R,2S,5R)-2-Isopropyl-5-methylcyclohexyl 2-oxo-2H-chromene-3-carboxylate] | 65.5 µM | 65.5 µM | 82.7 ± 3.5 µM | 1.44 | 57.3 ± 5.36 µM | 76.5 ± 8.85 µM | 1.08 | 57.8 ± 3.87 µM | 1.43 | 1.17 | 70.5 ± 2.31 µM |  |  |  |  |  | 0 µM
CCOP(=O)(OCC)C1C(=O)Oc2c(OC)cccc2C1P(=O)(c1ccccc1)c1ccccc1 (stereo not drawn) [Compound 5b, Diethyl (4-(Diphenylphosphoryl)-8-methoxy-2-oxochroman-3-yl)phosphonate] | > 100 µM |  | > 100 µM | 1 | > 100 µM | > 100 µM | 1 | > 100 µM | 1 | 1 | > 100 µM |  |  |  |  |  | 
